The values below come from US20070082872A1, “Indole-containing compounds with anti-tubulin and vascular targeting activity” (priority 1999, published 2007).

The subject of one test is NCI-H460 (lung-NSC). Briefly: In vitro growth inhibition (SRB), NCI-H460. The following applies: 48 hours incubation. The class given is cell-based, human. The procedure:
(§1) Newly prepared compounds were evaluated for cytotoxic activity against a variety of cell lines derived from human tumors using an assay system similar to the National Cancer Institute procedure previously described (Monks et al, J. Natl. Cancer Inst., 1991). Briefly, the cell suspensions, diluted according to the particular cell type and the expected target cell density (5,000-40,000 cells per well based on cell growth characteristics), were added by pipet (100 μl) to 96-well microtiter plates. Inoculates were allowed a preincubation time of 24-28 hours at 37° C. for stabilization. Incubation with the inhibitor compounds lasted for 48 hours in 5% CO2 atmosphere and 100% humidity. Determination of cell growth was performed by in situ fixation of cells, followed by staining with a protein-binding dye sulforhodamine B (SRB), which binds to the basic amino acids of cellular macromolecules. The solubilized stain was measured spectrophotometrically.
(§2) Several compounds were evaluated for cytotoxic activity against […] P388 leukemia cell lines. […] These and additional compounds were evaluated in terms of growth inhibitory activity against several other […] cancer cell lines including: central nervous system (“CNS”, SF-295), pancreas (BXPC-3), non-small cell lung cancer (“lung-NSC”, NCI-H460), breast (MCF-7), colon (KM20L2), ovarian (OVCAR-3), and prostate (DU-145). […]

A further test has as its system MDA-MB-231 cells. Briefly: Tumor growth control in vivo, MDA-MB-231 human breast adenocarcinoma model. The following applies: SCID mice, 25, 50 or 100 mg/kg daily i.p. for 5 consecutive days; effective dose printed as X mg/kg. On the procedure: The antitumor activity of indole phosphate prodrug, Oxi-8007, was assessed in tumor-bearing mice by measuring its effects on tumor volume. A human breast adenocarcinoma model was established by subcutaneous injection of cultured MDA-MB-231 cells in Fox Chase CB-17 SCID mice. When the average tumor size reached 50-100 mm^3, mice were randomly divided into several groups (n=10) with no significant difference in body weight and tumor size. Mice were administered Oxi-8007 in saline carrier at doses of 25, 50 or 100 mg/kg by daily intraperitoneal (i.p.) injection for 5 consecutive days (Q1×5). Saline carrier only was used as the control treatment. On Day 3, 7, 10, 13, 17 and 23, tumors were excised from animals in each treatment group (n=2) and measured by width and length. Tumor volume was calculated according to the following formula: Length×Width^2×0.4. The dosage effects of Oxi-com 197 is illustrated in FIG. 15.

A further test has as its system KM20L2 (colon). Briefly: In vitro growth inhibition (SRB), KM20L2. The class given is cell-based, human. The following applies: 48 hours incubation. On the procedure: as §1, §2
For test [1], the system named is MHEC-5T hemangioendothelioma tumor. The test can be described thus: Inhibition of tumor blood flow, Fluorescent Bead Assay. The following applies: for % VAPM (vessel area per tumor tissue area as a percentage of the control): single i.p. injection, 24 hours post-treatment. It is filed as in vivo, mice. The procedure:
The antivascular effects of the indole phosphate prodrug Oxi-8007, was assessed in tumor-bearing mice using a Fluorescent Bead Assay. A MHEC-5T hemangioendothelioma tumor model was established by subcutaneous injection of 0.5×10^6 cultured transformed cell murine myocardial vascular endothelial cell line (“MHEC5-T”) cells into the right flank of Fox Chase CB-17 Severe Combined Immunodeficient (“SCID”) mice. When transplanted tumors reached a size of 500 mm^3 (a size without development of necrosis), the mice received a single intraperitoneal (i.p.) injection of saline control or compound at doses ranging from 3.2 to 25 mg/kg. At 24 hours post-treatment, mice were injected intravenously with 0.25 ml of diluted FluoSphere beads (1:6 in physiological saline) in the tail vein, sacrificed after 3 minutes, and tumor was excised for cryosectioning. Tumor cryosections at a thickness of 8 um were directly examined using quantitative fluorescent microscopy. Blood vessels were indicated by blue fluorescence from injected beads. For quantification, image analysis of 3 sections from three tumors treated in each group were examined and vascular shutdown was expressed as vessel area (mm^2) per tumor tissue area (mm^2) as a percentage of the control (“%VAPM”). The results as shown in Table 4 indicate a clear dose-dependent effect of the agent on tumor blood flow as indicated by the reduction in blood vessel area at 24 hours following administration of Oxi8007. Administration of a dose of 100 mg/kg of Oxi-8007 or higher was particularly effective, causing a >98% reduction in tumor vessel volume relative to the control. A time-course of the effect of OX08007 on tumor blood flow is illustrated in FIG. 14.
Additional compounds of the present invention were tested for antivascular effects at two dosages (100 mg/kg and 10 mg/kg) using the same Fluorescent Bead Assay as in the previous experiment.

The next test deals with MCF-7 (breast). Briefly: In vitro growth inhibition (SRB), MCF-7. The class given is cell-based, human. The following applies: 48 hours incubation. On the procedure:
as §1, §2

A further test deals with BXPC-3 (pancreas). Briefly: In vitro growth inhibition (SRB), BXPC-3. It is filed as cell-based, human. The following applies: 48 hours incubation. On the procedure: as §1, §2
Another test relates to SF-295 (CNS). The test can be described thus: In vitro growth inhibition (SRB), SF-295. The following applies: 48 hours incubation. The class given is cell-based, human. The procedure:
as §1, §2

The subject of another test is DU-145 (prostate). Briefly: In vitro growth inhibition (SRB), DU-145. It is filed as cell-based, human. The following applies: 48 hours incubation. On the procedure: as §1, §2

Where only a bound is given, the exact number is not on record here.

Take `COc1ccc2c(C(=O)c3cc(OC)c(OC)c(OC)c3)c(-c3ccc(OC)c(OP(=O)([O-])[O-])c3)[nH]c2c1.[Na+].[Na+]` [Oxi-8007, 2-(3′-Disodiumphosphate-4′-methoxyphenyl)-3-(3″,4″,5″-trimethoxybenzoyl)-6-methoxyindole]: in the test on NCI-H460 (lung-NSC), the “GI50 for Cell Line NCI-H460” value was found to be 2.7 ng/mL. Further, the “tumor growth (tumor volume) relative to control treatment” value in the test with MDA-MB-231 cells is recorded as “significantly inhibited tumor growth”. In addition, the “GI50 for Cell Line KM20L2” value in the test on KM20L2 (colon) came to 4.3 ng/mL. The “% VAPM (vessel area per tumor tissue area as a percentage of the control)” value in test [1] (50 mg/kg) was 52%; in test [1] (100 mg/kg), 2%; in test [1] (200 mg/kg) it was 1%. In test [1] (dose of 100 mg/kg or higher, 24 hours), the “reduction in tumor vessel volume relative to the control” value was more than 98%. In the test with MCF-7 (breast), the “GI50 for Cell Line MCF-7” value was 2.3 ng/mL. Besides, the “GI50 for Cell Line BXPC-3” value in the test with BXPC-3 (pancreas) was 46 ng/mL. In the test with SF-295 (CNS), the “GI50 for Cell Line SF-295” value was 5.5 ng/mL. Further, the “GI50 for Cell Line DU-145” value with DU-145 (prostate) was less than 1 ng/mL.
